“And” between values parts separate entries of the source, which are not always exact repeats. Identical values can stand only once. “Also recorded” adds a separate entry of the source. Counter-ions that a name gives are not always drawn.
How the values were obtained:
[1] = tested on: coughs; details: in vivo; cited from earlier work
[2] = tested on: inflammatory factors, such as leukotriene B4 (LTB4), prostaglandin (PGE2), and a variety of cytokines; details: cited from earlier work
[3] = tested on: asthma; details: clinical trials for asthma; cited from earlier work
[4] = tested on: TRPV1; details: in vivo; cited from earlier work
[5] = tested on: cough induction using LPS and citric acid; assay: Animal Experiment 2: antitussive effect in LPS-citric acid cough model (inflammatory cough), guinea pigs; type: in vivo; details: for Cough Frequency / Cough Frequency Suppression Rate, Actual Value / Cough Latency: LPS + 0.2 M citric acid
Experimental: 160 guinea pigs, 250 g to 300 g each, half-male and half-female, certificate number 20220908Cdzz0412999409, were purchased from Xinjian Rabbit Farm, Dashiju Town, Xinchang County. The animals were reared at the general laboratory facility with 40% to 60% of humidity, and provided with a cycle of 12 h in the dark and 12 h in light. The animals could freely access to water and food. All operations and experimental procedures complied with the “Regulations on Animal Experiment Management.” • Production license: SCXK (Zhejiang) 2020-0005 • Application license: SCXK (Zhejiang) 2021-0019
Currently, there are barely reports on the models of inflammatory coughs in China and other countries. To closely mimic the occurrence of actual coughs in people suffering from acute respiratory infection, a novel inflammatory cough model was explored ahead of the projected experiments. This novel model was based on the citric acid-induced cough model, but the animals were subject to a LPS pretreatment before beginning with the cough provocation of citric acid.
After 5 days of adaptive feeding, the animal was individually placed in a glass bell jar to allow adaptation for 1 min, and then administrated with the compressed aerosol of 0.4 M citric acid solution (instead of physiological saline for the blank control group) for 10 min. The frequency of cough was recorded during administration of the citric acid aerosol. The guinea pigs with a cough frequency of 10-30 were retained for the formal experiments later. The qualified guinea pigs were randomly divided into the corresponding groups (not fewer than 8 in each group) and were subjected to test the inhalation of the nebulized solvent, menthol, eucalyptus oil, or a combination of menthol and eucalyptus oil for 10 min. After an interval of 15 min post inhalation of the test drug, the animals were administered with the aerosol of 1 mg/mL LPS. 4 hours post the LPS nebulization, the animals were subjected to the second inhalation of the nebulized solvent, menthol, eucalyptus oil, or the combination of menthol and eucalyptus oil for 10 min. Fifteen minutes later, the aerosol of 0.2 M citric acid was administered for cough induction, and the process was recorded by video during the inhalation of citric acid. The duration from the inhalation of the nebulized citric acid to the emergence of first cough was designated as the latency. The control group used solvent for nebulization and cough evoking.
• (1) 0.4 M citric acid: Citric acid was accurately weighed, added into an appropriate volume of pure water to make a final concentration of 0.4 mol/L, and completely dissolved by sonication. • (2) 0.2 M citric acid: Citric acid was accurately weighed, added into an appropriate volume of pure water to make a final concentration of 0.2 mol/L, and completely dissolved by sonication. • (3) Codeine: Codeine was accurately weighed, placed in a mortar and grounded repeatedly, added into an appropriate amount of physiological saline and completely dissolved by sonication. • (4) LPS preparation: LPS was accurately weighed, added into an appropriate amount of physiological saline to make a final concentration of 1 mg/mL, and completely dissolved by vortexing. • (5) Preparations of testing drugs: Initially, 4 g of menthol was dissolved in 10 mL of olive oil (menthol group), or 0.45 mL of eucalyptus oil was sufficiently mixed with 9.55 mL of olive oil (eucalyptus oil group). Afterwards, 5 g of soybean lecithin (previously cut into small pieces) was added to 10 mL of olive oil (control group) or each of the drug groups above, and dissolved by slowly stirring to form a uniform oil phase at 42° C. in a water bath. Further, double distilled water was slowly added to each group in oil phase on a magnetic stirrer and fully emulsified by sufficiently stirring to mix the oil phase with water. […]

[6] = tested on: sodium citrate-evoked coughs; assay: Animal Experiment 1: antitussive effect in sodium citrate (citric acid)-evoked cough, guinea pigs; type: in vivo; details: for Cough Frequency / Cough Latency / Inhibition Rate of Cough: nebulization 10 min, 0.4 M citric acid; for Inhibition Rate of Cough: original model
Experimental: 100 guinea pigs, 250 g to 300 g each, half-male and half-female, were purchased from Beijing Vital River Experimental Animal Technology Co., Ltd., referred to Certificate Numbers 110011220104932418, 110011220104932542. The animals were reared at the general laboratory facility with 40% to 60% of humidity, and provided with a cycle of light: 12 h in dark and 12 h in light. The animals could freely access to water and food. All operations and experimental procedures complied with the “Regulations on Animal Experiment Management.”
At the initial screening step, each guinea pig was individually placed in a glass bell jar to allow adaptation for 1 min and then administered with a compressed aerosol of 0.4 M citric acid solution (instead of physiological saline for the blank control group) for 10 min. The frequency of cough was recorded during administration of the aerosol. The guinea pigs with a cough frequency of 10-30 were retained for the formal experiments later. The qualified guinea pigs were randomly divided into the corresponding groups (not fewer than 10 in each group) and were subjected to test the inhalation of the nebulized solvent, menthol, eucalyptus oil, or a combination of menthol and eucalyptus oil for 10 min. After an interval of 10 min post-inhalation of the test drug, 0.4 M citric acid solution was nebulized and given for inhalation, and the cough frequency was recorded by video from the beginning to the end of the administration of citric acid aerosol. The latency of cough is defined as the period from the inhalation of nebulized citric acid to the appearance of the first cough. The videos were recorded during the period of cough provocation in the experiment.
• (1) 0.4 M sodium citrate: Sodium citrate was accurately weighed, added into an appropriate volume of pure water, completely dissolved by sonication, and finally diluted to 0.4 M for use later. • (2) Codeine: Codeine was accurately weighed, grounded sufficiently in a mortar, transferred into an appropriate amount of physiological saline, and dissolved by sonication. • (3) Preparations of testing drugs: Initially, an oil phase was prepared by dissolving 2 g of menthol in 10 mL of olive oil (menthol group); or well mixing 3.6 mL of eucalyptus oil with 6.4 mL of olive oil (eucalyptus oil group); or adding 2 g of menthol and 3.6 mL of eucalyptus oil/0.6 g of menthol and 3.6 mL of eucalyptus oil/2 g of menthol and 1.2 mL of eucalyptus oil respectively in a corresponding volume of olive oil to make a final 10 mL solution (menthol+eucalyptus oil groups). Afterwards, 5 g of soybean lecithin (cut into small pieces beforehand) was added to 10 mL of olive oil (control group) or each of the drug groups above and dissolved by slowly stirring to form a uniform oil phase at 42° C. in a water bath. Further, double distilled water was slowly added to each group in oil phase on a magnetic stirrer and fully emulsified by sufficiently stirring to mix the oil phase with water. A final emulsion was prepared in a volume of 100 mL and could be further diluted to make a working preparation with the specific concentration of drug (or drugs).
All experimental data were expressed as mean±SEM, and the data-processing software SSPS16.0 was used to conduct the analysis of variance and inter-group t-test. The conclusions were made by comprehensively analyzing all data.

[7] = tested on: capsaicin-guinea pig model; details: cited from earlier work
[8] = tested on: TRPM8; details: cooling effect; membrane potential depolarization and Ca2+ influx; cited from earlier work
[9] = 2% menthol, 3.6% eucalyptus oil, combinations, or 30 mg/mL codeine phosphate, P<0.01

In the case of `CC12CCC(CC1)C(C)(C)O2` [Eucalyptol, 1,8-Cineol], the “Antitussive effect in human clinical trials (in words)” value [1] is given as “proven to have anti-inflammatory and antitussive effects in clinical trials; also recorded: confirmed in clinical trials”, the “Anti-inflammatory effect (in words)” value [2] is given as “effective anti-inflammatory agent” and the “Replacement of glucocorticoids in asthma (in words)” value [3] is given as “partially replace the use of glucocorticoids”.
In the case of `COc1cc(CNC(=O)CCCC/C=C/C(C)C)ccc1O` [Capsaicin], the “Cough induction by TRPV1 agonists (in words)” value [4] is given as “evoke coughs in humans and guinea pigs”.
With `COc1ccc2c3c1O[C@H]1[C@@H](O)C=C[C@H]4[C@@H](C2)N(C)CC[C@@]341` [Codeine phosphate] the “Cough Frequency” value ([5]; 30 mg/mL codeine) was 8.44 ± 0.71, the “Cough Frequency Suppression Rate, Actual Value” (“Cough Frequency Suppression Rate” for short) ([5]; 30 mg/mL codeine) was 55.29 ± 3.86 % and the “Cough Latency” value ([5]; 30 mg/mL codeine) was 134.78 ± 9.72 s. The “Cough Frequency” value ([6]; 30 mg/mL codeine phosphate) was 7.90 ± 1.61 times, the “Cough Latency” value ([6]; 30 mg/mL codeine phosphate) was 158.30 ± 17.46 s and the “Inhibition Rate of Cough” value ([6]; 30 mg/mL codeine phosphate) was 57.30 ± 8.70 %.
For `CC(C)[C@@H]1CC[C@@H](C)C[C@H]1O` [Menthol, L-1-methyl-4-isopropylcyclohexan-3-ol], the “Cough Frequency” value ([5]; 0.06% menthol) was 16.50 ± 1.78, the “Cough Frequency Suppression Rate” value ([5]; 0.06% menthol) was 12.65 ± 9.44% and the “Cough Latency” value ([5]; 0.06% menthol) was 104.88 ± 10.85 s. The “Cough Frequency” value ([5]; 0.25% menthol) was 14.88 ± 1.90, the “Cough Frequency Suppression Rate” value ([5]; 0.25% menthol) was 21.25 ± 10.08% and the “Cough Latency” value ([5]; 0.25% menthol) was 88.75 ± 15.96 s. The “Statistical significance of cough suppression (in words)” value ([5]; 1.0% and 4% menthol, 0.15% and 0.45% eucalyptus oil, P<0.01-0.05) was “statistical significance; also recorded: statistically attained the significance in cough suppression”, the “Cough Frequency” value ([5]; 1.0% menthol) was 13.13 ± 0.55 and the “Cough Frequency Suppression Rate” value ([5]; 1.0% menthol) was 28.53 ± 3.00%. For the same compound, the “Cough Latency” value ([5]; 1.0% menthol) was 116.38 ± 11.30 s, the “Cough Frequency Suppression Rate” value ([5]; 1.0% menthol, listed as menthol) was 28.53 ± 3.00 % and the “Cough Frequency” value ([5]; 4.0% menthol) was 11.38 ± 0.82. For the same compound, the “Cough Frequency Suppression Rate” value ([5]; 4.0% menthol) was 39.78 ± 4.35%, the “Cough Latency” value ([5]; 4.0% menthol) was 128.13 ± 13.84 s and the “Cough Frequency Suppression Rate” value ([5]; 4.0% menthol, listed as menthol) was 39.78% and 39.78 ± 4.35 %. The “Effect on frequency of coughs (in words)” value ([5]; menthol 0.06-4%, eucalyptus oil 0.05-0.45%, combinations 0.06-1.0% + 0.05-0.15%, codeine 30 mg/mL) was “reduce the frequency of coughs in a dose-dependent manner”, the “Efficacy on inflammatory coughs compared with original model (in words)” value ([5]; novel LPS-citric acid model vs original citric acid model) was “reduced; also recorded: better activities on non-inflammatory coughs; also recorded: declined” and the “Antitussive effect in human clinical trials (in words)” value [1] was “well verified in human clinical trials”. The “Effect on frequency of coughs / antitussive effect (in words)” value [6, 9] was “reduced the frequency of coughs; also recorded: reduced the cough frequency; also recorded: show antitussive effects”, the “Effect on latency of coughs (in words)” value [6, 9] was “significantly increased the cough latency” and the “Cough Frequency” value ([6]; 2% menthol) was 11.58 ± 1.72 times. For the same compound, the “Cough Latency” value ([6]; 2% menthol) was 155.50 ± 20.43 s, the “Inhibition Rate of Cough” value ([6]; 2% menthol) was 37.39 ± 9.30% and the “Inhibition Rate of Cough” value ([6]; 2% menthol, listed as menthol) was 37.39% and 37.39 ± 9.30 %. The “Antitussive effect on capsaicin-evoked coughs (in words)” value [7] was “effectively suppress coughs; also recorded: significantly suppressed” and the “Activation of TRPM8 (in words)” value [8] was “Activation of TRPM8”.
In the case of `O=C(O)CC(O)(CC(=O)O)C(=O)O` [Sodium citrate], the “Cough induction by TRPV1 agonists (in words)” value [4] is listed as “evoke coughs in humans and guinea pigs” and the “Cough induction (in words)” value ([6]; 0.4 M sodium citrate, P<0.01 vs control) is listed as “significantly evoke coughing in guinea pigs”.
In the case of `O=C(O)CC(O)(CC(=O)O)C(=O)O` [Citric acid], the “Cough induction (in words)” value ([5]; 0.2 M citric acid after LPS, P<0.01 vs blank control) is reported as “significantly induce coughs”.
